In US6978572B1, “Method and device for attracting insects” (Colorado State University Research Foundation, priority 1998, dated 2005):
Several values for one entry are separate records, joined by “and”; a condition that tells them apart may be missing. Identical values can stand only once. Entries after “also recorded” stand apart in the source; their conditions may differ. Like-named read-outs stand apart in the source and are kept apart here.

Columns and labels:
[1] = test system: plant-parasitic nematodes; details: cited from earlier work
wireworm larvae = details: Doane et al. (1975); cited from earlier work
Reticulitermes flavipes = assay: T-tube choice-test behavioral bioassay with CO2; format: in vivo; details: versus ambient air
Description: (§1) Behavioral bioassay apparatus: The choice-test bioassay apparatus was constructed from a glass T-tube (5 mm inside diameter, 5 mm stem, with each branch 4.5 cm long). Each branch of the ‘T’ was bent downward (2.5 cm from the junction of the ‘T’) at a 45° angle to form a pitfall trap. A 5 mm NMR cap (cat. no. 100-0050, Drummond Scientific, Broomall, Pa.) with a 1 mm pinhole in it was firmly pushed over the end of each bent branch. A 25 cm length of Teflon tubing (0.8 mm inside diameter) was inserted 3 mm into the hole in each NMR cap and the other end of the tubing was connected to a 35 ml polyethylene syringe (cat. no. 106-0490, Sherwood Medical, St. Louis, Mo.). The two 35-ml syringes were connected to a syringe pump which was adjusted to provide an airflow of 1 ml per min into each choice arm of the bioassay apparatus. Mixtures of CO2 and ambient air were tested to determine the termite response to a range of CO2 concentrations. A 35-ml syringe was rinsed with distilled water and partially filled (5 ml) with ambient air. Different amounts of 100% CO2 were obtained with a smaller glass syringe from a tank and injected into the 35-ml syringe. Ambient air was then drawn into the 35-ml syringe to fill it and mix the gases by turbulence as the syringe was loaded. A 2nd 35-ml polyethylene syringe was filled with ambient air for a control. Measurements with GC-MS-SIM confirmed that the CO2 concentrations reached equilibrium after 15 min. The CO2 concentration of the syringes was determined by using GC-MS-SIM analysis (see below) before each bioassay. Bioassays were conducted with both Reticulitermes tibialis and Reticulitermes flavipes for 1, 2, 5, 10, 20, 50 and 500 mmol per mol concentrations of CO2 and with Reticulitermes virginicus for 5, 10, 20, and 50 mmol per mol. Procedure: For bioassays, termite workers were collected from plastic tubs by using a camel's hair brush and were placed into a holding container constructed from a 3 cm length of Teflon tubing (8 mm inside diameter). The container was plugged at one end with a NMR cap with two holes (1 mm) drilled in the bottom. A second NMR cap with a 4 mm hole was inserted backwards into the other end of the Teflon tube. The end of the NMR cap was sealed with a small square of cellophane held in place with a plastic tube (a piece of plastic soda straw) that fit snugly over the open end. Termites (5 workers) were placed in the container and the top was sealed. The container was placed horizontally and left undisturbed for 20 min. The T-tube apparatus was assembled and clamped horizontally on top of a block of foam rubber (12 by 12 cm) with a wire bent into a U-shape. The syringe pump was turned on, and after 3 min of pumping, the cellophane seal was removed from the holding container and the entrance to the holding container was gently connected to the central arm of the T-tube, allowing termites to crawl out and enter the apparatus. Bioassays were conducted for 15 min, after which the number of termites in each pitfall was recorded. CO2 measurements: Gas chromatography-mass spectrometry in selected ion monitoring mode (GC-MS-SIM) at m/e 44 was used to determine CO2 concentrations. A Hewlett-Packard Series II 5890 gas chromatograph interfaced with a Hewlett-Packard 5971 mass selective detector was used with a methyl silicone capillary column (30 m×0.32 mm inside diameter, RSL-150, Alltech, Deerfield, Ill.). […]

[2] = test system: Reticulitermes virginicus; assay: T-tube choice-test behavioral bioassay with CO2; format: in vivo; details: versus ambient air
Description: as §1

Reticulitermes tibialis = assay: T-tube choice-test behavioral bioassay with CO2; format: in vivo
Description: as §1

[3] = test system: western corn root worm larvae
[4] = test system: western corn root worm larvae; details: literature reports; cited from earlier work

**Q.** What does the source list for `O=C=O` [CO2, Carbon dioxide]?
**A.** CO2 threshold for nematode response ([1]; higher baseline concentration (1.0%)): 0.05%; CO2 threshold for nematode response ([1]; low baseline levels of CO2 (0.1%)): 0.01%; Smallest CO2 difference to which larvae respond (wireworm larvae): 0.02%; CO2 concentration of best attraction (Reticulitermes flavipes): 10 mmol per mol; CO2 concentration of best attraction [2]: 10 mmol per mol; Termites choosing CO2 side versus control side (Reticulitermes tibialis; 5 mmol/mol CO2 versus ambient air): significantly greater than the number that moved to the control side; also recorded: significantly more often; also recorded: Significantly more termites (p<0.05) were attracted to the side containing 5 mmol/mol CO2 than to the control side; CO2 concentration of best attraction (Reticulitermes tibialis; versus ambient air): 5 mmol per mol; CO2 concentrations to which termites were attracted (Reticulitermes tibialis; versus ambient air, 5 workers, 15 min): 10 mmol per mol and 20 mmol per mol; Selective response, attraction to higher CO2 concentration ([3]; 0.125 mmol/mol difference at higher base concentrations): no difference in attraction was observed in any of the tests at higher concentrations; Larvae attracted to CO2 side versus control side ([3]; 10 mmol/mol CO2 (10.43±0.18) versus ambient air, syringe sources): significantly more western corn root worm larvae (P<0.05) were attracted to the side containing 10 mmol/mol CO2; Selective response, attraction to higher CO2 concentration ([3]; 1 versus 1.125 mmol/mol (actual 1.06±0.05 versus 1.18±0.05)): significantly greater attraction was observed to 1.125 mmol/mol than to 1 mmol/mol; Selective response, attraction to higher CO2 concentration ([3]; 1 versus 1.25 mmol/mol): more attracted to the higher CO2 concentration; Selective response, attraction to higher CO2 concentration ([3]; 1 versus 1.50 mmol/mol): Significantly more larvae were attracted; Selective response, attraction to higher CO2 concentration ([3]; 2 versus 2.25 mmol/mol): more attracted to the higher CO2 concentration; Selective response, attraction to higher CO2 concentration ([3]; 2 versus 2.50 mmol/mol): Significantly more larvae were attracted; Selective response, attraction to higher CO2 concentration ([3]; 5 versus 5.25 mmol/mol): no difference in attraction was observed; Selective response, attraction to higher CO2 concentration ([3]; 5 versus 5.50 mmol/mol): Significantly more larvae were attracted; Selective response, attraction to higher CO2 concentration ([3]; 10 versus 10.25 mmol/mol): no difference in attraction was observed; Selective response, attraction to higher CO2 concentration ([3]; 10 versus 10.50 mmol/mol): Significantly more larvae were attracted; Selective response, attraction to higher CO2 concentration ([3]; 20 versus 20.25 mmol/mol): no difference in attraction was observed; Selective response, attraction to higher CO2 concentration ([3]; 20 versus 20.50 mmol/mol): no difference in attraction was observed; Smallest difference between the 2 CO2 choices still attracting larvae to the higher concentration ([3]; base level 1 mmol/mol): 0.125 mmol/mol; CO2 excess over control at which larvae were 1st attracted ([3]; control contained 1, 2, 5, 10, and 20 mmol/mol CO2): 12.5%; Lowest CO2 concentration significantly attractive to neonate larvae ([3]; control side ambient air 0.99±0.02 mmol/mol): 1.125±0.04 mmol/mol; Highest concentration of CO2 to which larvae were attracted ([3]; dose-response, syringe sources): 100 mmol/mol and 85.6±1.20 mmol/mol; Most attractive (optimal) concentrations of CO2 ([3]; dose-response, syringe sources): 2.51-4.20 mmol/mol and 2.51±0.13 mmol/mol and 4.20±0.21 mmol/mol; Lowest concentration of CO2 attractive to the larvae ([3]; dose-response, syringe sources, control 0.91±0.03): 1.34±0.05 mmol/mol; Attraction of larvae reported in earlier publications [4]: highly attracted to CO2

**Q.** For `ClCCl` [dichloromethane, reference compound], which “Attraction of larvae reported in earlier publications” value [4] is on record?
**A.** attractive to Diabrotica larvae
